Test results reported in paper PMC7048775, “Single-molecule imaging of PI(4,5)P2 and PTEN in vitro reveals a positive feedback mechanism for PTEN membrane binding” (Communications Biology, 2020).

Columns and labels:
PTEN (PTEN-Halo) [1] = biological target: T1, PTEN (PTEN-Halo) (Dictyostelium discoideum, UniProt Q8T9S7, R47A); experiment: single-molecule TIRF imaging on supported planar lipid bilayer, dissociation curve; type: binding; settings: 10 mol% PI(4,5)P2 in DOPC bilayer, pH 8.0, 300 mM NaCl, 21 °C
PTEN (PTEN-Halo) [2] = biological target: T2, PTEN (PTEN-Halo) (Dictyostelium discoideum, UniProt Q8T9S7); experiment: as above; settings: 10 mol% PI(4,5)P2 in DOPC bilayer, pH 8.0, 300 mM NaCl, 21 °C; membrane dissociation of protein, two binding states; no affinity constant
T2 sequence (Q8T9S7 1-533): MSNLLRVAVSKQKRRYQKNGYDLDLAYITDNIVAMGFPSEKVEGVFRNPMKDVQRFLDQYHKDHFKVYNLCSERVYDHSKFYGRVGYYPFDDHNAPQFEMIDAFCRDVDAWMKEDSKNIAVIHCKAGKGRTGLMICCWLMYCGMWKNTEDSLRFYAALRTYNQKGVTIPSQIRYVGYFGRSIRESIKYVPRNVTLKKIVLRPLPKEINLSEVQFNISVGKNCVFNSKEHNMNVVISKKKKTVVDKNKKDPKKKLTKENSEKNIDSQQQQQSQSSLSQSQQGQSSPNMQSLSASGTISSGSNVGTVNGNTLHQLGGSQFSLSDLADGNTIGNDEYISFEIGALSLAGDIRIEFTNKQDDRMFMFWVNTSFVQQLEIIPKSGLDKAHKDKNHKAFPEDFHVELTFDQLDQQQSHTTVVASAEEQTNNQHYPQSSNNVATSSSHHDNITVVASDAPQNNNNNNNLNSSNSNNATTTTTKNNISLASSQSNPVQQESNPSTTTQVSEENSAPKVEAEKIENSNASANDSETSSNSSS

PTEN (PTEN-Halo) [3] = biological target: T1, PTEN (PTEN-Halo); experiment: phosphate release, BIOMOL Green, absorbance […] nm; type: biochemical; settings: 5 nmol substrate in 50 μL, pH 8.0, 2 mM DTT, 21 °C, 2 h
PTEN (PTEN-Halo) [4] = biological target: PTEN (PTEN-Halo) (Dictyostelium discoideum, UniProt Q8T9S7, K11A/K13A/R14A/R15A); experiment: phosphate release, BIOMOL Green, absorbance […] nm; type: biochemical; settings: 5 nmol substrate in 50 μL, pH 8.0, 2 mM DTT, 21 °C, 2 h
Chain of PTEN (PTEN-Halo) (Dictyostelium discoideum, UniProt Q8T9S7, K11A/K13A/R14A/R15A) (Q8T9S7 whole entry K11A/K13A/R14A/R15A): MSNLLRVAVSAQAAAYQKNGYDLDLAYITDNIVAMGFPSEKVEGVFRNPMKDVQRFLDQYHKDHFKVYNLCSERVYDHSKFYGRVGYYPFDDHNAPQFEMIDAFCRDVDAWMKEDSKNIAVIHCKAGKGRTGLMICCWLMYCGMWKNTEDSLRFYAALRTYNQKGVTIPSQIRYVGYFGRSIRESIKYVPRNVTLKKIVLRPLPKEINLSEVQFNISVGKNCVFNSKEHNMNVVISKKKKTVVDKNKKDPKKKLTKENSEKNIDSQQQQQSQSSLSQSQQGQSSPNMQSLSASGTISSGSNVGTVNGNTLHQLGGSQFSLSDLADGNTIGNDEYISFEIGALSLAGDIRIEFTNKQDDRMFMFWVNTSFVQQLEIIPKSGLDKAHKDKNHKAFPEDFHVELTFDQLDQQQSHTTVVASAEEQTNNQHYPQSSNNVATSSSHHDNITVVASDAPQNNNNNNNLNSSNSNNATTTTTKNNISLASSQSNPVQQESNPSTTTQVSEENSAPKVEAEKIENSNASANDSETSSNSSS

T1 sequence (Q8T9S7 whole entry R47A): as the sequence (Q8T9S7 whole entry K11A/K13A/R14A/R15A) above, with A11K, A13K, A14R, A15R, R47A counted along it

With `CCCCCCCC/C=C\CCCCCCCC(=O)OC[C@H](COP(=O)(O)O[C@@H]1[C@H](O)[C@H](O)[C@@H](OP(=O)(O)O)[C@H](OP(=O)(O)O)[C@H]1O)OC(=O)CCCCCCC/C=C\CCCCCCCC` [PI(4,5)P2, 1,2-dioleoyl-sn-glycero-3-phospho-(1′-myo-inositol-4′,5′-bisphosphate)] the “average dissociation rate constant k” value (PTEN (PTEN-Halo) [1]) was “both mutants exhibited faster dissociation than wild type” and the “average dissociation rate constant k” value (PTEN (PTEN-Halo) [2]) was 15.9 ± 2.8 s⁻¹.
With `CCCCCCCC(=O)OC[C@H](COP(=O)(O)O[C@H]1[C@H](O)[C@@H](OP(=O)(O)O)[C@H](OP(=O)(O)O)[C@@H](OP(=O)(O)O)[C@H]1O)OC(=O)CCCCCCC` [diC8-PI(3,4,5)P3] the “phosphate release, BIOMOL Green, absorbance 620 nm” value (PTEN (PTEN-Halo) [3]) was “Phosphatase activities of the mutants were comparable to each other” and the “phosphate release, BIOMOL Green, absorbance 620 nm” value (PTEN (PTEN-Halo) [4]) was “Phosphatase activities of the mutants were comparable to each other”.
